PubChem BioAssay AID328 (DTP/NCI, 2004)
Where “and” joins values, the source holds several entries; their conditions need not be identical. Equal values may be shown once. Toxic doses and inconclusive results are not listed.

Tested on: BDF1 mice, P388 leukemia ip, median survival T/C
Test: NCI In Vivo Anticancer Drug Screen. Data for tumor model P388 Leukemia (intraperitoneal) in B6D2F1 (BDF1) mice
Settings: endpoint: median survival time, higher = longer survival
Procedure, shortened: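 Read-out is survival of treated animals expressed relative to the vehicle group, as a T/C ratio.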

[1] = dose: 50.0 mg/kg/injection, schedule: Q04DX003 (ip), vehicle: saline
[2] = dose: 50.0 mg/kg/injection, schedule: Q01DX009 (ip), vehicle: Klucel (hydroxypropylcellulose) (HPC)
[3] = dose: 100.0 mg/kg/injection, schedule: Q01DX009 (ip), vehicle: Klucel (hydroxypropylcellulose) (HPC)
[4] = dose: 200.0 mg/kg/injection, schedule: Q01DX009 (ip), vehicle: Klucel (hydroxypropylcellulose) (HPC)
[5] = dose: 50.0 mg/kg/injection, schedule: Q01DX009 (ip), vehicle: saline
[6] = dose: 100.0 mg/kg/injection, schedule: Q01DX009 (ip), vehicle: saline
[7] = dose: 50.0 mg/kg/injection, schedule: Q04DX003 (ip), vehicle: saline with Tween-80
[8] = dose: 100.0 mg/kg/injection, schedule: Q04DX003 (ip), vehicle: saline with Tween-80
[9] = dose: 200.0 mg/kg/injection, schedule: Q04DX003 (ip), vehicle: saline with Tween-80
[10] = dose: 12.5 mg/kg/injection, schedule: Q01DX009 (ip), vehicle: Klucel (hydroxypropylcellulose) (HPC)
[11] = dose: 400.0 mg/kg/injection, schedule: Q04DX003 (ip), vehicle: saline with Tween-80

**Q.** Which results are given for `c1nc(SC2=NCCN2)c2[nH]cnc2n1`?
**A.** T/C (dose: 4.12 mg/kg/injection, schedule: Q01DX009 (ip), vehicle: saline): 118 % of control; T/C (dose: 6.25 mg/kg/injection, schedule: Q01DX009 (ip), vehicle: saline): 150 % of control; T/C (dose: 9.37 mg/kg/injection, schedule: Q01DX009 (ip), vehicle: saline): 122 % of control; T/C (dose: 12.5 mg/kg/injection, schedule: Q01DX009 (ip), vehicle: saline): 119 % of control; T/C (dose: 12.5 mg/kg/injection, schedule: Q04DX003 (ip), vehicle: saline): 115 % of control; T/C (dose: 21.0 mg/kg/injection, schedule: Q01DX009 (ip), vehicle: saline): 100 % of control; T/C (dose: 25.0 mg/kg/injection, schedule: Q01DX009 (ip), vehicle: saline): 123 % of control; T/C (dose: 25.0 mg/kg/injection, schedule: Q04DX003 (ip), vehicle: saline): 115 % of control; T/C [1]: 123 % of control

**Q.** `CN(N=O)c1ccc(N(C)N=O)cc1` was tested. Which T/C [2] did it give?
**A.** 95 % of control

**Q.** What about the T/C [3] of the same compound?
**A.** 95 % of control

**Q.** What about the T/C (dose: 100.0 mg/kg/injection, schedule: Q04DX003 (ip), vehicle: Klucel (hydroxypropylcellulose) (HPC)) of the same compound?
**A.** 95 % of control

**Q.** And the T/C [4]?
**A.** 90 % of control

**Q.** What about the T/C (dose: 200.0 mg/kg/injection, schedule: Q04DX003 (ip), vehicle: Klucel (hydroxypropylcellulose) (HPC)) of the same compound?
**A.** 105 % of control

**Q.** What about the T/C (dose: 400.0 mg/kg/injection, schedule: Q04DX003 (ip), vehicle: Klucel (hydroxypropylcellulose) (HPC)) of the same compound?
**A.** 95 % of control

**Q.** With `CC(=O)OCc1ccc(-n2c(C(F)(F)F)nc3nc(Cl)c(Cl)nc32)o1` as the compound, how does the T/C [5] read?
**A.** 100 % of control

**Q.** What about the T/C [1] of the same compound?
**A.** 108 % of control

**Q.** What about the T/C [6] of the same compound?
**A.** 107 % of control

**Q.** What about the T/C (dose: 100.0 mg/kg/injection, schedule: Q04DX003 (ip), vehicle: saline) of the same compound?
**A.** 103 % of control

**Q.** And the T/C (dose: 200.0 mg/kg/injection, schedule: Q04DX003 (ip), vehicle: saline)?
**A.** 101 % of control

**Q.** What about the T/C (dose: 400.0 mg/kg/injection, schedule: Q04DX003 (ip), vehicle: saline) of the same compound?
**A.** 100 % of control

**Q.** Which T/C (dose: 100.0 mg/kg/injection, schedule: Q04DX003 (sc), vehicle: olive oil, sesame oil, peanut oil) does the source give for `CC(=O)CC(=O)NCCCc1ccccc1` here?
**A.** 109 % of control

**Q.** What about the T/C (dose: 200.0 mg/kg/injection, schedule: Q04DX003 (sc), vehicle: olive oil, sesame oil, peanut oil) of the same compound?
**A.** 100 % of control

**Q.** And the T/C (dose: 400.0 mg/kg/injection, schedule: Q04DX003 (sc), vehicle: olive oil, sesame oil, peanut oil)?
**A.** 100 % of control

**Q.** Which results are given for `CCN(C(C)(C)C(SSSC(c1ccc(Cl)cc1)C(C)(C)N(CC)S(C)(=O)=O)c1ccc(Cl)cc1)S(C)(=O)=O` (stereo not drawn)?
**A.** T/C [7]: 109 % of control; T/C [8]: 122 % of control; T/C [9]: 122 % of control

**Q.** Which results are given for `COC1=CC(=O)CC(C)C12Oc1c(Cl)c(OC)cc(OC)c1C2=O` (stereo not drawn)?
**A.** T/C [3]: 100 % of control; T/C (dose: 100.0 mg/kg/injection, schedule: Q01DX009 (ip), vehicle: saline with Tween-80): 100 % of control; T/C [4]: 109 % of control; T/C (dose: 200.0 mg/kg/injection, schedule: Q01DX009 (ip), vehicle: saline with Tween-80): 100 % of control; T/C (dose: 400.0 mg/kg/injection, schedule: Q01DX009 (ip), vehicle: Klucel (hydroxypropylcellulose) (HPC)): 100 % of control; T/C (dose: 400.0 mg/kg/injection, schedule: Q01DX009 (ip), vehicle: saline with Tween-80): 109 % of control

**Q.** `COC1=C(C)C(=O)C2=C(C1=O)C1C3CC4=C(C(=O)C(OC)=C(C)C4=O)C(CNC(=O)C(C)=O)N3C(C#N)C(C2)N1C` (stereo not drawn) was tested. Which T/C (dose: 0.31 mg/kg/injection, schedule: Q01DX009 (ip), vehicle: Klucel (hydroxypropylcellulose) (HPC)) did it give?
**A.** 151 % of control

**Q.** What about the T/C (dose: 0.62 mg/kg/injection, schedule: Q01DX009 (ip), vehicle: Klucel (hydroxypropylcellulose) (HPC)) of the same compound?
**A.** 183 % of control

**Q.** What about the T/C (dose: 1.25 mg/kg/injection, schedule: Q01DX009 (ip), vehicle: Klucel (hydroxypropylcellulose) (HPC)) of the same compound?
**A.** 159 % of control

**Q.** How did the T/C (dose: 0.1 mg/kg/injection, schedule: Q01DX010 (ip), vehicle: saline) turn out when `O=C1N[C@@H]([C@H]2CC[C@H](Cl)CN2)C(=O)N[C@H]1[C@H]1CC[C@H](Cl)CN1` was run?
**A.** 154 % of control

**Q.** What about the T/C (dose: 0.2 mg/kg/injection, schedule: Q01DX010 (ip), vehicle: saline) of the same compound?
**A.** 181 % of control

**Q.** What about the T/C (dose: 0.4 mg/kg/injection, schedule: Q01DX010 (ip), vehicle: saline) of the same compound?
**A.** 227 % of control

**Q.** And the T/C (dose: 1.44 mg/kg/injection, schedule: Q04DX003 (ip), vehicle: saline)?
**A.** 170 % of control

**Q.** And the T/C (dose: 1.44 mg/kg/injection, schedule: Q04DX003 (ip), vehicle: water)?
**A.** 179 % of control

**Q.** What about the T/C (dose: 2.4 mg/kg/injection, schedule: Q04DX003 (ip), vehicle: saline) of the same compound?
**A.** 184 % of control

**Q.** What about the T/C (dose: 2.4 mg/kg/injection, schedule: Q04DX003 (ip), vehicle: water) of the same compound?
**A.** 192 % of control

**Q.** What about the T/C (dose: 2.5 mg/kg/injection, schedule: Q01DX001 (ip), vehicle: saline) of the same compound?
**A.** 177 % of control

**Q.** What about the T/C (dose: 4.0 mg/kg/injection, schedule: Q04DX003 (ip), vehicle: saline) of the same compound?
**A.** 252 % of control

**Q.** And the T/C (dose: 4.0 mg/kg/injection, schedule: Q04DX003 (ip), vehicle: water)?
**A.** 259 % of control

**Q.** And the T/C (dose: 5.0 mg/kg/injection, schedule: Q01DX001 (ip), vehicle: saline)?
**A.** 209 % of control

**Q.** And the T/C (dose: 6.67 mg/kg/injection, schedule: Q04DX003 (ip), vehicle: saline)?
**A.** 118 % of control

**Q.** And the T/C (dose: 6.67 mg/kg/injection, schedule: Q04DX003 (ip), vehicle: water)?
**A.** 118 % of control

**Q.** How did the T/C (dose: 12.5 mg/kg/injection, schedule: Q01DX001 (ip), vehicle: saline with Tween-80) turn out when `CC1(C)O[Te]2(OC1(C)C)OC(C)(C)C(C)(C)O2` was run?
**A.** 104 % of control

**Q.** What about the T/C (dose: 25.0 mg/kg/injection, schedule: Q01DX001 (ip), vehicle: saline with Tween-80) of the same compound?
**A.** 113 % of control

**Q.** Which results are given for `O=S(=O)(O)O.[Ga]`?
**A.** T/C (dose: 8.25 mg/kg/injection, schedule: Q01DX009 (ip), vehicle: saline sonified): 100 % of control; T/C [7]: 90 % of control; T/C [8]: 95 % of control; T/C (dose: 134.0 mg/kg/injection, schedule: Q04DX003 (ip), vehicle: saline with Tween-80): 92 % of control; T/C [9]: 123 % of control; T/C (dose: 300.0 mg/kg/injection, schedule: Q04DX003 (ip), vehicle: saline with Tween-80): 96 % of control

**Q.** Which T/C (dose: 3.12 mg/kg/injection, schedule: Q01DX009 (ip), vehicle: Klucel (hydroxypropylcellulose) (HPC)) does the source give for `CC[CH2][Pb]([CH2]CC)([CH2]CC)[N]1C(=O)c2ccccc2C1=O` here?
**A.** 108 % of control and 123 % of control

**Q.** And the T/C (dose: 6.25 mg/kg/injection, schedule: Q01DX009 (ip), vehicle: Klucel (hydroxypropylcellulose) (HPC))?
**A.** 110 % of control and 123 % of control

**Q.** What about the T/C [10] of the same compound?
**A.** 123 % of control

**Q.** `COC1=CC(=O)c2c(O)cc(OC)cc2C1=O` was tested. Which T/C (dose: 1.25 mg/kg/injection, schedule: Q01DX009 (ip), vehicle: saline with Tween-80) did it give?
**A.** 120 % of control

**Q.** What about the T/C (dose: 2.5 mg/kg/injection, schedule: Q01DX009 (ip), vehicle: saline with Tween-80) of the same compound?
**A.** 95 % of control

**Q.** Which T/C [10] does the source give for `CCNc1nc(Cl)nc(-c2cn(-c3ccccc3)c3ccccc23)n1` here?
**A.** 100 % of control

**Q.** What about the T/C (dose: 25.0 mg/kg/injection, schedule: Q01DX009 (ip), vehicle: Klucel (hydroxypropylcellulose) (HPC)) of the same compound?
**A.** 91 % of control

**Q.** What about the T/C [2] of the same compound?
**A.** 86 % of control

**Q.** And the T/C [3]?
**A.** 91 % of control

**Q.** Which results are given for `CCOc1ccc2[nH]c(=S)sc2c1`?
**A.** T/C (dose: 100.0 mg/kg/injection, schedule: Q01DX001 (ip), vehicle: Klucel (hydroxypropylcellulose) (HPC)): 116 % of control; T/C (dose: 200.0 mg/kg/injection, schedule: Q01DX001 (ip), vehicle: Klucel (hydroxypropylcellulose) (HPC)): 91 % of control; T/C (dose: 400.0 mg/kg/injection, schedule: Q01DX001 (ip), vehicle: Klucel (hydroxypropylcellulose) (HPC)): 95 % of control

**Q.** With `NC(Cn1ccc(=O)c(O)c1)C(=O)O` (stereo not drawn) as the compound, how does the T/C [5] read?
**A.** 95 % of control

**Q.** And the T/C [6]?
**A.** 100 % of control

**Q.** What about the T/C (dose: 200.0 mg/kg/injection, schedule: Q01DX009 (ip), vehicle: saline) of the same compound?
**A.** 108 % of control

**Q.** And the T/C (dose: 400.0 mg/kg/injection, schedule: Q01DX009 (ip), vehicle: saline)?
**A.** 122 % of control

**Q.** With `Cn1cc(/C=C\C(=O)O)c2nccnc21` as the compound, how does the T/C (dose: 6.25 mg/kg/injection, schedule: Q01DX009 (ip), vehicle: water) read?
**A.** 96 % of control

**Q.** And the T/C (dose: 12.5 mg/kg/injection, schedule: Q01DX009 (ip), vehicle: water)?
**A.** 90 % of control

**Q.** And the T/C (dose: 25.0 mg/kg/injection, schedule: Q01DX009 (ip), vehicle: water)?
**A.** 90 % of control

**Q.** And the T/C (dose: 100.0 mg/kg/injection, schedule: Q01DX009 (ip), vehicle: water)?
**A.** 102 % of control

**Q.** What does the source list for `CCCNC(=O)Nc1cccc(Cl)c1C`?
**A.** T/C [8]: 104 % of control; T/C [9]: 100 % of control; T/C [11]: 100 % of control

**Q.** With `COc1ccc(C(C(N)=O)N2CCCC2)cc1` (stereo not drawn) as the compound, how does the T/C [8] read?
**A.** 110 % of control

**Q.** What about the T/C [9] of the same compound?
**A.** 120 % of control

**Q.** And the T/C [11]?
**A.** 100 % of control
